# Biological target: T1, BACE2 (Rattus norvegicus, UniProt Q6IE75)
# T1 construct: endogenous cellular BACE2 in the Ins1e rat cell line; endogenous in cells; host or cells: INS-TMEM27 (INS1e-derived rat cell line with doxycycline-inducible full-length human TMEM27)
# T1 sequence (Q6IE75 63-514): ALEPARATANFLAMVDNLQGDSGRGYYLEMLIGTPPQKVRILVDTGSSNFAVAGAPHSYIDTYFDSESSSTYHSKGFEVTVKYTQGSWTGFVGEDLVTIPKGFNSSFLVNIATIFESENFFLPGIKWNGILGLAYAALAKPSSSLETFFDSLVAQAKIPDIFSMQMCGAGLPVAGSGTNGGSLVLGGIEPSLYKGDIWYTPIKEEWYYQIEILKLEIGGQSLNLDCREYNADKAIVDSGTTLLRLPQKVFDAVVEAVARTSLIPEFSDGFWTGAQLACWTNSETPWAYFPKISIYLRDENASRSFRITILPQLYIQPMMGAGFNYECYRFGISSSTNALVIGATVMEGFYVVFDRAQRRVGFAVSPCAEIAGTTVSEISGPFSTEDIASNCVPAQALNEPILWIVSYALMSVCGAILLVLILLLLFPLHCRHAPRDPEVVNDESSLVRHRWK
# Test: Assay for BACE inhibition by measuring cellular TMEM27 cleavage (INS-TMEM27 cells, ELISA)
# Type: cell-based
# Settings: INS-TMEM27 (INS1e-derived) cells; shed TMEM27 by ELISA
# From the text: Assay for BACE Inhibition by Measuring Cellular TMEM27 Cleavage:
# The assay uses the principle of inhibition of human TMEM27 cleavage by endogenous cellular BACE2 in the Ins1e rat cell line and shedding from the cell surface into the culture medium, followed by detection in an ELISA assay. Inhibition of BACE2 prevents the cleavage and shedding in a dose-dependent manner.
# The stable cell line “INS-TMEM27” represents an INS1e-derived cell line with inducible expression (using the TetOn system) of full-length hTMEM27 in a doxycycline-dependent manner. The cells are cultured throughout the experiment in RPMI1640+Glutamax (Invitrogen) Penicillin/Streptomycin, 10% Fetal bovine serum, […], […], 100 micrograms/ml G418 and 100 microgram/ml hygromycin and are grown inadherent culture at 37° C. in a standard CO2 cell culture incubator.
# INS-TMEM27 cells are seeded in 96-well plates. After 2 days in culture, BACE2 inhibitor is added in a range of concentrations as required by the assay and after a further two hours, doxycycline is added to a final concentration of 500 ng/ml. The cells are incubated for a further 46 hours and the supernatant harvested for detection of shed TMEM27.
# An ELISA assay (using a pair of mouse anti-human-TMEM27 antibodies, raised against the extracellular domain of TMEM27) is used for detection of TMEM27 in the culture medium. An EC50 for BACE2 inhibition is calculated using the ELISA readout for each inhibitor concentration with standard curve-fitting software such as XLFit for the Excel spreadsheet program.
compound,measurement,value
"CC1(c2cccc(-c3cc(Cl)cc(Cl)c3)c2)COCC(N)=N1 (stereo not shown) [Example 32, 5-(3′,5′-Dichloro-biphenyl-3-yl)-5-methyl-5,6-dihydro-2H-[1,4]oxazin-3-ylamine]",IC50,470 nM
